Data taken from US20240082416A1, “AMATOXIN ANALOGS AND USES THEREOF” (THE UNIVERSITY OF BRITISH COLUMBIA, priority 2020, published 2024).
“And” between values parts separate entries of the source, which are not always exact repeats. Equal values may be shown once. Starred links: 1 amine or outer side, 2 acyl side, 3 side chain; linkers in the order of their positions; H or OH if unused. Positions of bridges follow the written chain, without caps; N, C: chain ends. Non-standard residues stand in square brackets, D forms with d. Residues, ends and D or L forms follow the SMILES beside them. Trp(2-yl) = O=C([C@H](Cc1c([*:3])[nH]c2ccccc12)N[*:1])[*:2]; Ile(4R-OH,5-OH) = C[C@H]([C@H](N)C(=O)O)[C@@H](O)CO; X1 = N#C[C@@H]1C[C@@H](C(=O)[*:2])N([*:1])C1; Pro(4R-NH2) = N[C@H]1CN[C@H](C(=O)O)C1

Assays:
Pol II = molecular target: T1, Pol II (Homo sapiens, UniProt P24928); assay: In vitro transcription runoff assay using HeLaScribe nuclear extract; type: biochemical; conditions: for Transcription activity E (%): mean ± standard deviation
T1 construct: HeLaScribe® nuclear extract containing Pol II and all other transcription factors; purchased Promega; host or cells: HeLa nuclear extract (endogenous protein)

[1] = Viability assay against CHO cells (MTT colorimetric assay); type: cell-based, Chinese hamster; conditions: Chinese hamster, CHO cells, 72 h, replicates n = 1, 2, 3, read-out: % viable cells; for viability at 72 h, 1e-05 M: 1e-005 M; for viability at 72 h, 1.25e-06 M: 1.25e-006 M; for viability at 72 h, 1.56e-07 M: 1.56e-007 M; for viability at 72 h, 2e-05 M: 2e-005 M; for viability at 72 h, 2.5e-06 M: 2.5e-006 M; for viability at 72 h, 3.125e-07 M: 3.125e-007 M; for viability at 72 h, 5e-06 M: 5e-006 M; for viability at 72 h, 6.25e-07 M: 6.25e-007 M
CHO cells = assay: as above; type: cell-based, Chinese hamster; conditions: 72 h, replicates n = 1, 2, 3
[2] = IC50 (nM), Table 11, 3 parameter logistic fit
[3] = IC50 (nM), Table 12, n = 3, high values estimated from activity at [I]=1.0 μM

SMILES | Transcription activity E (%) (Pol II; 30 nM) | Transcription activity E (%) (Pol II; 100 nM) | Transcription activity E (%) (Pol II; 300 nM) | Transcription activity E (%) (Pol II; 1000 nM) | IC50 (Pol II; [2]) [nM] | IC50 (Pol II; [3]) [nM] | viability at 72 h, 1e-05 M [1] [%] | viability at 72 h, 1.25e-06 M [1] [%] | viability at 72 h, 1.56e-07 M [1] [%] | viability at 72 h, 2e-05 M [1] [%] | viability at 72 h, 2.5e-06 M [1] [%] | viability at 72 h, 3.125e-07 M [1] [%] | viability at 72 h, 5e-06 M [1] [%] | viability at 72 h, 6.25e-07 M [1] [%] | other results
CC[C@H](C)[C@@H]1NC(=O)CNC(=O)[C@@H]2Cc3c([nH]c4ccccc34)SC[C@H](NC(=O)CNC1=O)C(=O)N[C@@H](CC(N)=O)C(=O)N1C[C@H](N)C[C@H]1C(=O)N[C@@H]([C@@H](C)[C@@H](O)CO)C(=O)N2 [Compound 6, NH2-Pro-amanitin] (cyclo(CN[Pro(4R-NH2)][Ile(4R-OH,5-OH)][Trp(2-yl)]GIG); thioether 1-5) | 91.7 ± 9.3 | 82.3 ± 12.8 | 55.0 ± 23.6 | 38.6 ± 18.3 | 550 ± 90 | 550 ± 90 | 91 | 95 | 95 | 92 | 86 | 86 | 87 | 92 | Transcription activity E (%) (Pol II; 3000 nM): 19.8 ± 9.9%; IC50 (Pol II; IC50): 550 ± 90 nM; viability at 72 h, 7.8e-08 M ([1]; 7.8e-008 M): 96%; % viable cells (CHO cells; 1e-005 M, listed as NH2-Pro-amanitin (6)): 81% and 83%; % viable cells (CHO cells; 1.25e-006 M, listed as NH2-Pro-amanitin (6)): 88%; % viable cells (CHO cells; 1.56e-007 M, listed as NH2-Pro-amanitin (6)): 97%; % viable cells (CHO cells; 2e-005 M, listed as NH2-Pro-amanitin (6)): 89% and 85%; % viable cells (CHO cells; 2.5e-006 M, listed as NH2-Pro-amanitin (6)): 85% and 82%; % viable cells (CHO cells; 5e-006 M, listed as NH2-Pro-amanitin (6)): 79% and 84%; % viable cells (CHO cells; 6.25e-007 M, listed as NH2-Pro-amanitin (6)): 85%; % viable cells (CHO cells; 7.8e-008 M, listed as NH2-Pro-amanitin (6)): 89%
CC[C@H](C)[C@@H]1NC(=O)CNC(=O)[C@@H]2Cc3c([nH]c4ccccc34)SC[C@H](NC(=O)CNC1=O)C(=O)N[C@@H](CC(N)=O)C(=O)N1C[C@H](C#N)C[C@H]1C(=O)N[C@@H]([C@@H](C)[C@@H](O)CO)C(=O)N2 [Compound 4, CN-Pro-amanitin] (cyclo(CN[X1][Ile(4R-OH,5-OH)][Trp(2-yl)]GIG); thioether 1-5) | 64.8 ± 7.4 | 74.0 ± 13.0 | 72.4 ± 9.7 | 52.3 ± 17.0 | 480 ± 380 | 480 ± 380 | 110 | 102 | 102 | 121 | 101 | 99 | 103 | 102 | Transcription activity E (%) (Pol II; 10 nM): 80.7 ± 7.9%; % viable cells (CHO cells; 1e-005 M, listed as CN-Pro-amanitin (4)): 90%; % viable cells (CHO cells; 1.25e-006 M, listed as CN-Pro-amanitin (4)): 91% and 92%; % viable cells (CHO cells; 1.56e-007 M, listed as CN-Pro-amanitin (4)): 93% and 87%; % viable cells (CHO cells; 2e-005 M, listed as CN-Pro-amanitin (4)): 118% and 108%; % viable cells (CHO cells; 2.5e-006 M, listed as CN-Pro-amanitin (4)): 91% and 87%; % viable cells (CHO cells; 3.125e-007 M, listed as CN-Pro-amanitin (4)): 92% and 90%; % viable cells (CHO cells; 5e-006 M, listed as CN-Pro-amanitin (4)): 92% and 90%; % viable cells (CHO cells; 6.25e-007 M, listed as CN-Pro-amanitin (4)): 89% and 92%
